The results in this text go back to patent publication US9850272B2, “Therapeutically active estratrienthiazole derivatives as inhibitors of 17.beta-hydroxy-steroid dehydrogenase, type 1” (FORENDO PHARMA LTD, priority 2013, dated 2017).

SMILES strings stand for the structures. Structures can show the parent of a compound that is named as a salt. Where two headings read alike, the source gives them in different places.

Assay [1] has as its target T1, Recombinant Human 17β-HSD2 (Homo sapiens, UniProt P37059).
T1 construct: made in house; host or cells: Sd9 (Sf9) insect cells, baculovirus (Bac to Bac Expression System)
T1 sequence (P37059 1-387): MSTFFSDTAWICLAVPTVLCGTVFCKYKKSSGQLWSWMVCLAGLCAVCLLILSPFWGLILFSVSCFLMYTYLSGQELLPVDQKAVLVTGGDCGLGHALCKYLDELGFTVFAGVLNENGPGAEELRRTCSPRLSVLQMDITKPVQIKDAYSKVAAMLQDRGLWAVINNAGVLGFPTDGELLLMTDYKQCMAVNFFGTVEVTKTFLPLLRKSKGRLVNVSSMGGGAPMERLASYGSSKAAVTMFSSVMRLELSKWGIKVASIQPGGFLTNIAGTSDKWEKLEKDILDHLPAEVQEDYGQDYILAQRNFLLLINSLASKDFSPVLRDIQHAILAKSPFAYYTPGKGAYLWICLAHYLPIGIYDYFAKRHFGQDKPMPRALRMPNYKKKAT
Briefly: Inhibition of recombinant human 17β-HSD2 (conversion of 3H-estradiol to estrone, HPLC). The assay is classed as biochemical. The settings on record: for inhibition at 1 µM: read-out: 17β-HSD2 Inhibition % at 1 μM. Here is the method:
17β-HSD2 Production and Isolation:
Similarly to 17β-HSD1 the Recombinant baculovirus was generated by the “Bac to Bac Expression System” (Invitrogen). Recombinant bacmid was transfected to Sd9 insect cells using “Cellfectin Reagent” (Invitrogen). 60 h later cells were harvested and supernatant were fractionated by the following protocol: • cells were dissolved into 40 ml of A-buffer (40 mM TRIS, pH8.0, 20% glycerol, 20 μM NAD, 0.4 mM PMSF, 150 mM NaCl, 0.5% dodecyl-β-maltoside+protease inhibitor cocktail) • cells were sonicated • lysate was incubated on ice for 15 min • lysate was centrifuged 5000 rpm 15 min, +4° C. • centrifugation of the supernatant 180.000 g 30 min, +4° C. • pellet was dissolved into 8 ml of A-buffer • not resuspended material was removed by centrifugation 5000 rpm 15 min, +4° C. • the clear supernatant was divided into 100 μl aliquots and were stored frozen until determination of enzymatic activity.
The amount of 17β-HSD2 was analysed by immunoblotting and total protein concentration of each extract batch was determined.
Assay—Inhibition of Recombinant Human 17β-HSD2:
Recombinant protein (4 μg/ml) was incubated in 20 mM KH2PO4 pH 8.5 with 50 nM estradiol (including 800.000 cpm/ml of ^3H-estradiol) and 1 mM NADH for 30 min at RT, in the presence of the potential inhibitor at concentrations 1 μM or 0.1 μM. Inhibitor stock solutions were prepared in DMSO. Final concentration of DMSO was adjusted to 1% in all samples. The enzyme reaction was stopped by addition of 10% trichloroacetic acid (final concentration). Samples were centrifuged in a microtiter plate at 4000 rpm for 10 min. Supernatants were applied to reverse phase HPLC on a Waters Symmetry C18 column, equipped with a Waters Sentry Guard column. Isocratic HPLC runs were performed at RT at a flow rate of 1 ml/min in acetonitrile:water 48:52 as running solvent. Radioactivity was monitored in the eluate by a Packard Flow Scintillation Analyzer. Total radioactivity for estrone and estradiol were determined in each sample and percent conversion of estradiol to estrone was calculated according to the following formula:
(§1) Percent inhibition was calculated flowingly: % inhibition=100−% conversion

The target in assay [2] is T2, Recombinant Human 17β-HSD1 (Homo sapiens, UniProt P14061).
T2 construct: made in house; host or cells: Sd9 (Sf9) insect cells, baculovirus (Bac to Bac Expression System)
T2 sequence (P14061 1-328): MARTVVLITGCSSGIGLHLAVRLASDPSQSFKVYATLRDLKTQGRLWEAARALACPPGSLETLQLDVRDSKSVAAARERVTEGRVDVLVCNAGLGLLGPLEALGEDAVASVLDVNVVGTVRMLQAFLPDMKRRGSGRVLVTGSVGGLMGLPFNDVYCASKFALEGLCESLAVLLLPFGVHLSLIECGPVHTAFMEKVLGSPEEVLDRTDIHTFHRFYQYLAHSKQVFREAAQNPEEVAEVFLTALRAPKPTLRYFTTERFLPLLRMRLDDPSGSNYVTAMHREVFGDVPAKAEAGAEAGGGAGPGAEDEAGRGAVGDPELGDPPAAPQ
Briefly: Inhibition of recombinant human 17β-HSD1 (conversion of 3H-estrone to estradiol, HPLC). In kind it is biochemical. The note with it: for inhibition at 1 µM: read-out: 17β-HDS1 Inhibition % at 1 μM. Here is the method: 17β-HSD1 Production and Isolation:
Recombinant baculovirus was generated by the “Bac to Bac Expression System” (Invitrogen). Recombinant bacmid was transfected to Sd9 insect cells using “Cellfectin Reagent” (Invitrogen). 60 h later cells were harvested; the microsomal fraction was isolated as described by Puranen, T. J., Poutanen, M. H., Peltoketo, H. E., Vihko, P. T. and Vihko, R. K. (1994) Site-directed mutagenesis of the putative active site of human 17 β-hydroxysteroid dehydrogenase type 1. Biochem. J. 304: 289-293. Aliquots were stored frozen until determination of enzymatic activity.
Assay—Inhibition of Recombinant Human 17β-HSD1:
Recombinant protein (1 μg/ml) was incubated in 20 mM KH2PO4 pH 7.4 with 30 nM estrone (including 800.000 cpm/ml of ^3H-estrone) and 1 mM NADPH for 30 min at RT, in the presence of the potential inhibitor at concentrations 1 μM or 0.1 μM. Inhibitor stock solutions were prepared in DMSO. Final concentration of DMSO was adjusted to 1% in all samples. The enzyme reaction was stopped by addition of 10% trichloroacetic acid (final concentration). Samples were centrifuged in a microtiter plate at 4000 rpm for 10 min. Supernatants were applied to reverse phase HPLC on a Waters Symmetry C18 column, equipped with a Waters Sentry Guard column. Isocratic HPLC runs were performed at RT at a flow rate of 1 ml/min in acetonitrile:water 48:52 as running solvent. Radioactivity was monitored in the eluate by a Packard Flow Scintillation Analyzer. Total radioactivity for estrone and estradiol were determined in each sample and percent conversion of estrone to estradiol was calculated according to the following formula:
as §1

[3] abbreviates: inhibitor at 1 μM, 50 nM estradiol, 1 mM NADH, 30 min at RT.
[4] abbreviates: inhibitor at 1 μM, 30 nM estrone, 1 mM NADPH, 30 min at RT.

As for `Cc1cnc(NC(=O)CC[C@@H]2CC(NC(C)C)[C@@]3(C)CCC4c5ccc(O)cc5CCC4C23)s1` (stereo partly drawn) [Compound 73, 3-[(13S,15R)-3-Hydroxy-17-isopropylamino-13-methyl-7,8,9,11,12,13,14,15,16,17-decahydro-6H-cyclopenta[a]phenanthren-15-yl]-N-(5-methylthiazol-2-yl)propionamide], the values for the inhibition at 1 µM in assay [1] (setting [3]) and in assay [2] (setting [4]) were 11% and 86%, respectively.

In the case of `Cc1cnc(NC(=O)CC[C@@H]2C[C@H](OC(=O)CCC(=O)O)[C@@]3(C)CCC4c5ccc(O)cc5CCC4C23)s1` (stereo partly drawn) [Compound 43, Succinic acid mono-{(13S,15R,17S)-3-hydroxy-13-methyl-15-[2-(5-methylthiazol-2-ylcarbamoyl)-ethyl]-17-oxo-7,8,9,11,12,13,14,15,16,17-decahydro-6H-cyclopenta[a]phenanthren-17-yl}ester], the inhibition at 1 µM came out at 1% in assay [1] (setting [3]) and 97% in assay [2] (setting [4]).

On to `COc1ccc2c(c1)CCC1C2CC[C@@]2(C)C1[C@H](CCC(=O)Nc1ncc(C)s1)C[C@@]2(O)C#N` (stereo partly drawn) [Compound 23, 3-((13S,15R,17S)-17-cyano-17-hydroxy-3-methoxy-13-methyl-7,8,9,11,12,13,14,15,16,17-decahydro-6H-cyclopenta[a]phenanthren-15-yl)-N-(5-methylthiazol-2-yl)propanamide], for which the inhibition at 1 µM in assay [1] (setting [3]) was found to be 3%; in assay [2] (setting [4]), 82%.

For `Cc1cnc(NC(=O)CC[C@@H]2C[C@H](OP(=O)(O)O)[C@@]3(C)CCC4c5ccc(O)cc5CCC4C23)s1` (some centres unmarked) [Compound 60], the figures for the inhibition at 1 µM in assay [1] (setting [3]) and in assay [2] (setting [4]) were 0% and 74%, respectively.

With `Cc1cnc(NC(=O)CC[C@@H]2C[C@H](O)[C@@]3(C)CCC4c5ccc(O)c(NC(C)C)c5CCC4C23)s1` (stereo partly drawn) [Compound 71, 3-((13S,15R,17S)-3,17-Dihydroxy-4-isopropylamino-13-methyl-7,8,9,11,12,13,14,15,16,17-decahydro-6H-cyclopenta[a]phenanthren-15-yl)-N-(5-methylthiazol-2-yl)propionamide], the inhibition at 1 µM in assay [1] (setting [3]) was determined as 10%; in assay [2] (setting [4]) it was 49%.

For `Cc1cnc(NC(=O)CC[C@@H]2C[C@H](O)[C@@]3(C)CCC4c5ccc(O)cc5CCC4C23)s1` (stereo partly drawn) [Compound 1, 3-((13S,15R,17S)-3,17-Dihydroxy-13-methyl-7,8,9,11,12,13,14,15,16,17decahydro-6H-cyclopenta[a]phenanthren-15-yl)-N-(5-methylthiazol-2-yl)propanamide], the inhibition at 1 µM in assay [1] (setting [3]) is 48%; in assay [2] (setting [4]) it was 98%.

For `Cc1cnc(NC(=O)CC[C@@H]2C[C@@](O)(C#N)[C@@]3(C)CCC4c5ccc(O)cc5CCC4C23)s1` (stereo partly drawn) [Compound 21, 3-((13S,15R,17S)-17-cyano-3,17-dihydroxy-13-methyl-7,8,9,11,12,13,14,15,16,17-decahydro-6H-cyclopenta[a]phenanthren-15-yl)-N-(5-methylthiazol-2-yl)propanamide], the inhibition at 1 µM in assay [1] (setting [3]) was 6%; in assay [2] (setting [4]) it was 76%.

Take `COc1ccc2c(c1)CCC1C2CC[C@@]2(C)C1[C@H](CCC(=O)Nc1ncc(C)s1)C[C@@H]2O` (stereo partly drawn) [Compound 6, 3-((13S,15R,17S)-17-Hydroxy-3-methoxy-13-methyl-7,8,9,11,12,13,14,15,16,17-decahydro-6H-cyclopenta[a]phenanthren-15-yl)-N-(5-methylthiazol-2-yl)propanamide]: the inhibition at 1 µM is 3% in assay [1] (setting [3]) and 58% in assay [2] (setting [4]).

`Cc1cnc(NC(=O)CC[C@@H]2CC(NCCCN(C)C)[C@@]3(C)CCC4c5ccc(O)cc5CCC4C23)s1` (stereo partly drawn) [Compound 80b, 3-[(13S,15R)-17-(3-Dimethylamino-propylamino)-3-hydroxy-13-methyl-7,8,9,11,12,13,14,15,16,17-decahydro-6H-cyclopenta[a]phenanthren-15-yl]-N-(5-methylthiazol-2-yl)propionamide dihydrochloride]: in assay [1] (inhibitor at 1 μM, 50 nM estradiol, 1 mM NADH, 30 min at RT, dihydrochloride), the “17β-HSD2 Inhibition % at 1 μM” value stood at 2%. The “17β-HDS1 Inhibition % at 1 μM” value in assay [2] (inhibitor at 1 μM, 30 nM estrone, 1 mM NADPH, 30 min at RT, dihydrochloride) worked out at 61%.

Regarding `Cc1cnc(NC(=O)CC[C@@H]2C[C@H](NCc3ccco3)[C@@]3(C)CCC4c5ccc(O)cc5CCC4C23)s1` (stereo partly drawn) [Compound 76, 3-((13S,15R)-17-[(Furan-2-ylmethyl)-amino]-3-hydroxy-13-methyl-7,8,9,11,12,13,14,15,16,17-decahydro-6H-cyclopenta[a]phenanthren-15-yl]-N-(5-methylthiazol-2-yl)propionamide], the inhibition at 1 µM in assay [1] (setting [3]) was determined as 4%; in assay [2] (setting [4]), 85%.

In the case of `Cc1cnc(NC(=O)CC[C@@H]2C[C@H](OC(=O)CCC(=O)O)[C@@]3(C)CCC4c5ccc(O)cc5CCC4C23)s1` (some centres unmarked) [Compound 44, sodium salt], the values for the inhibition at 1 µM in assay [1] and in assay [2] were 2% and 94%, respectively.

Turning to `Cc1cnc(NC(=O)CC[C@@H]2C[C@H](O)[C@@]3(C)CCC4c5cc(Br)c(O)c(Br)c5CCC4C23)s1` (stereo partly drawn) [Compound 28, 3-((13S,15R,17S)-2,4-dibromo-3,17-dihydroxy-13-methyl-7,8,9,11,12,13,14,15,16,17-decahydro-6H-cyclopenta[a]phenanthren-15-yl)-N-(5-methylthiazol-2-yl)propanamide], the results for the inhibition at 1 µM in assay [1] (setting [3]) and in assay [2] (setting [4]) were 15% and 91%, respectively.

Turning to `Cc1cnc(NC(=O)CC[C@@H]2CC(NCCCN(C)C)[C@@]3(C)CCC4c5ccc(O)cc5CCC4C23)s1` (stereo partly drawn) [Compound 80a, 3-[(13S,15R)-17-(3-Dimethylamino-propylamino)-3-hydroxy-13-methyl-7,8,9,11,12,13,14,15,16,17-decahydro-6H-cyclopenta[a]phenanthren-15-yl]-N-(5-methylthiazol-2-yl)propionamide], the inhibition at 1 µM in assay [1] (setting [3]) was found to be 1%; in assay [2] (setting [4]) it was 70%.

In general, inhibition refers to the change of the read-out against control, counted positive when it falls.
